Assay results as given in patent US11712439B2, “Methods and materials for identifying and treating bet inhibitor-resistant cancers” (Mayo Foundation for Medical Education and Research, priority 2017, dated 2023).
Where a SMILES comes first, the peptide text is derived from it. The star is where a group is joined. Cbz = O=C(OCc1ccccc1)*

How the values were obtained:
C4-2 cells = test: Cell proliferation assay (MTS) and trypan blue assay, C4-2 cells; type: cell-based, human; settings: SPOP-F133V C4-2 cells, GDC-0068 0.2 μM with JQ1 0.25 μM, 5 days
Experimental: CellTiter 96® AQueous One Solution Cell Proliferation Assay (MTS) (Promega) was used to measure cell growth according to the manufacturer's instructions. Briefly, cells were plated in 96-well plates at a density of 2,000 cells per well. At the indicated times, 20 μL of Cell Titer 96R Aqueous One Solution Reagent was added to medium. After incubating for 1 hour at 37° C. in the cell incubator, cell growth was measured in a microplate reader at 490 nm.
Trypan blue assay was performed to measure cell growth according to the manufacturer's instructions. Briefly, cells were plated in 6-well plates at a density of about 5×10^4 to about 1×10^5 cells per well. At the indicated time points, cells were trypsinized and suspended in 1 mL 1×PBS. 100 μL cells and 100 μL trypan blue solution (Sigma-Aldrich) were mixed, and the number of viable cells was measured using the Bio-Rad automated cell counter.

solid tumors = settings: patients with solid tumors (Saura et al. 2017); cited from earlier work
C4-2 xenograft tumors = test: Prostate cancer xenografts in mice, tumor volume; type: in vivo; settings: SPOP-F133V C4-2 xenografts, GDC-0068 100 mg/kg with JQ1 50 mg/kg, 5 days a week, day 21
Experimental: 6-week-old NOD-SCID IL-2-receptor gamma null (NSG) mice were generated and randomly divided into different experimental groups as indicated. All mice were housed in standard conditions with a 12-hour light/dark cycle and access to food and water ad libitum. For BRD2/3/4 knockdown studies, C4-2 cells (5×10^6), infected with lentivirus expressing empty vector (EV) or HA-SPOP-F133V mutant in combination with control shRNA or BRD2/3/4-specific shRNA, were mixed with Matrigel (in 100 μL 1×PBS plus 100 μL Matrigel (BD Biosciences)) and injected s.c. into the right flank of mice. […] Growth in tumor volume was measured in a blinded fashion using digital caliper, and tumor volumes were estimated using the formula (L×W2)/2, where L is length of tumor and W is width. The volumes of tumors were compared, and P values were determined by a two-tailed Student's t test. Upon the completion of treatment, tumor grafts were harvested. Tumor tissues were divided, and a portion was subjected to FFPE. the rest was frozen for protein and RNA extraction.

AKT-mTORC1 pathway = test: Western blot of AKT and S6K phosphorylation in C4-2 cells; type: cell-based, human; settings: SPOP-F133V C4-2 cells, GDC-0068 1 μM, 24 hours
Experimental: (§1) Cell lysates or immunoprecipitates were subjected to SDS-PAGE, and proteins were transferred to nitrocellulose membranes (GE Healthcare Sciences). The membranes were blocked in Tris-buffered saline (TBS, pH 7.4) containing 5% non-fat milk and 0.1% Tween-20, washed twice in TBS containing 0.1% Tween-20, and incubated with primary antibody overnight at 4° C., followed by secondary antibody for 1 hour at room temperature. The proteins of interest were visualized using ECL chemiluminescence system (Santa Cruz Biotechnology). Densitometry analysis of protein bands was analyzed on the Gel-Pro Analyzer software.

BRD2/3/4 proteins = test: Western blot of 293T cells transfected with SPOP and BRD2/3/4, with or without MG132; type: cell-based, human; settings: 20 μM MG132 for 8 hours
Experimental: as §1

BRD2/3/4 = test: Western blot and RT-qPCR of BRD2/3/4 in inhibitor-treated LNCaP cells; type: cell-based, human; settings: 8 hours, Bortezomib 200 nM, MG132 20 μM; for BRD2/3/4 protein level: MLN4924 200 nM
Experimental: as §1
Total RNA was isolated from transiently transfected cells using the Trizol reagent (Thermo Fisher Scientific), and cDNA was reverse-transcribed using the Superscript RT kit (TOYOBO, Japan) according to the manufacturer's instructions. PCR amplification was performed using the SYBR Green PCR master mix Kit (TOYOBO, Japan). All quantization was normalized to the level of endogenous control GAPDH. The primer sequences for the SYBR green qPCR used were as follows: BRD2-F: 5′-[…]-3′ (SEQ ID NO:10); BRD2-R: 5′-[…]-3′ (SEQ ID NO:11); BRD3-F: 5′-[…]-3′ (SEQ ID NO:12); BRD3-R: 5′-[…]-[…]-3′ (SEQ ID NO:13); BRD4-F: 5′-[…]-GAG-3′ (SEQ ID NO:14); BRD4-F: 5′-[…]-3′ (SEQ ID NO:15); RAC1-F: 5′-[…]-3′ (SEQ ID NO:16); RAC1-R: 5′-[…]-3′ (SEQ ID NO:17); FDFT1-F: 5′-ACTAT-[…]-3′ (SEQ ID NO:18); FDFT1-R: 5′-[…]-[…]-3′ (SEQ ID NO:19); DHCR24-F: 5′-[…]-GAGC-3′ (SEQ ID NO:20); DHCR24-R: 5′-[…]-3′ (SEQ ID NO:21); DHCR7-F: 5′-[…]-3′ (SEQ ID NO:22); DHCR7-R: 5′-[…]-3′ (SEQ ID NO:23); MVD-F: 5′-[…]-3′ (SEQ ID NO:24); MVD-R: 5′-CACAC-[…]-3′ (SEQ ID NO:25); PSA-F: 5′-[…]-[…]-3′ (SEQ ID NO:26); PSA-R: 5′-[…]-3′ (SEQ ID NO:27); TMPRSS2-F: 5′-[…]-3′ (SEQ ID NO:28); TMPRSS2-R: 5′-[…]-3′ (SEQ ID NO:29); MYC-F: 5′-[…]-3′ (SEQ ID NO:30); MYC-R: 5′-CTTGT-[…]-3′ (SEQ ID NO:31); AR-F: 5′-[…]-TCACC-3′ (SEQ ID NO:32); AR-R: 5′-[…]-3′ (SEQ ID NO:33); GAPDH-F: 5′-[…]-3′ (SEQ ID NO:34); and GAPDH-R: 5′-[…]-3′ (SEQ ID NO:35).

Compound: CC(C)NC[C@@H](C(=O)N1CCN(c2ncnc3c2[C@H](C)C[C@H]3O)CC1)c1ccc(Cl)cc1 [GDC-0068]
- SPOP mutation-conferred resistance to BET inhibitor, cells in culture (C4-2 cells): completely overcame
- Antitumor efficacy in patients (solid tumors): effective antitumor efficacy
- SPOP mutation-conferred resistance to BET inhibitor, tumors in mice (C4-2 xenograft tumors): completely overcame
- SPOP mutation-induced activation of AKT downstream pathways (AKT-mTORC1 pathway): abolished

Compound: CC(C)C[C@@H](C=O)NC(=O)[C@H](CC(C)C)NC(=O)[C@H](CC(C)C)NC(=O)OCc1ccccc1 [MG132] (Cbz-Leu-Leu-Leu-aldehyde)
- Effect on the decrease of BRD2/3/4 proteins caused by wild-type SPOP (BRD2/3/4 proteins): completely reversed
- BRD2/3/4 mRNA expression (BRD2/3/4): not mRNA expression
- BRD2/3/4 protein level (BRD2/3/4): increased BRD2/3/4 protein

Compound: NS(=O)(=O)OC[C@@H]1C[C@@H](n2ccc3c(N[C@H]4CCc5ccccc54)ncnc32)C[C@@H]1O [MLN4924]
- BRD2/3/4 protein level (BRD2/3/4): caused accumulation of BRD2/3/4 at protein level

Compound: CC(C)C[C@H](NC(=O)[C@H](Cc1ccccc1)NC(=O)c1cnccn1)B(O)O [Bortezomib]
- BRD2/3/4 mRNA expression (BRD2/3/4): not mRNA expression
- BRD2/3/4 protein level (BRD2/3/4): increased BRD2/3/4 protein
